From patent US8895261B2, “Use of fluorescent saccharide-based derivative” (I-Shou University, priority 2012, dated 2014)

System: fibroblast 3T3 cells
Experiment: Cellular uptake of fluorescent saccharide-based derivative in fibroblast 3T3 cells (fluorescence microscopy)
Assay type: cell-based
Details: 100 μl of 0.5 mg/ml added to 3T3 cells, reacting overnight; FIG. 2G
Method: 1. Cultivate the fibroblast 3T3 cells in a DMEM medium (the DMEM medium contains 10% fetal bovine serum, 5 mM pyruvic acid, and antibiotics). The cells are cultivated in an incubator containing 5% CO2.
2. When the cells grow and occupy 80% of the bottom of the culture flask through cell division, suck out the culture medium and wash with 1×PBS, then add 0.05% trypsin to react for 1 minute in order to separate the cells, and add 5 ml culture medium, then centrifuge with […] for 10 minutes.
3. After centrifugation, remove the supernatant, then add 5 ml of culture medium, and evenly mix the cells and the culture medium. Take 30 μl of the cell solution and mix with 270 μl of trypan blue, then take 100 μl and place on a cytometer, and count the cell number using erythrocytomertry.
4. After counting the cells, adjust the cell number to 1×10^4 cells/ml, and take 1 ml of the cells and plant into a 24-well culture plate containing a glass slide, then place the cells in a cell incubator at 37° C. and 5% CO2. Incubate for 1 day, and then add 100 μl of 0.5 mg/ml glucosylglycine. After reacting overnight, wash twice with 1×PBS (10 minutes/turn).
5. Add 4% paraformaldehyde to the culture plate, and place in room temperature for twenty minutes to fix the cells, then remove the paraformaldehyde and wash 3 times with 1×PBS (10 minutes/turn).
6. […]

For `O=C(O)CNC1O[C@H](CO)[C@@H](O)[C@H](O)[C@H]1O` (stereo partly drawn) [glucosylglycine, D-glucosylglycine], the “cell uptake (cells emit fluorescence after being fed)” value was “uptakable by cells”.
